What was measured:
[1] = system: chicks of chair label JA657 strain; test: Hypnotic and sedative activities in chicks (alternate lighting, test between 2.00 pm and 3.00 pm); details: for ST (sleeping time) / Sedation time (after waking up, Stage 2) / FAT (falling-asleep time): IM; for FAT (falling-asleep time): to the nearest minute
Beagle dogs = test: Hypnotic activity in Beagle dogs (polygraphic measurement of the conscious and sleeping states); assay type: in vivo, dog; details: for Mean duration of the state of consciousness: Consciousness / Mean duration of the state of consciousness: Drowsiness / Mean duration: P.S. (paradoxal sleep) / Mean duration: Slow-wave sleep S1 + S2 / Mean duration: Total sleep / Mean latency time: Drowsiness / Mean latency time: P.S. (paradoxal sleep) / Mean latency time: Slow-wave sleep S1: 7 Beagle dogs, IV single bolus; for Mean duration of the state of consciousness: Consciousness / Mean duration of the state of consciousness: Drowsiness / Mean duration: P.S. (paradoxal sleep) / Mean duration: Slow-wave sleep S1 + S2 / Mean duration: Total sleep: 150 min recording; for Hypnotic power (in words): Beagle dogs, IV, sleep with high proportion of slow waves, consciousness reduced, latencies reduced
Protocol: During each test, the dogs are taken to a recording room in which they are connected to a Schwarzer ED 24 polygraph driven by Brainlab® for Windows® by means of a flexible cable. The dog is then placed in a 0.70×1×0.8 m metal cage in which it stays for 150 minutes.
The test products and the placebo were administered intravenously as a single bolus into the anterior median vein. The recordings are noted in periods of 30 seconds following the five states of vigilance defined by Shelton et al.:
deep slow-wave sleep, and
by examining the amplitude and frequency of the 2 frontal EEG plots (frontal), the EOG plots (bilateral) and the EMG plots (neck muscles) as follows:
Conscious: The dogs may be standing, sitting or lying down, or moving between these positions. Their eyes are open. This state includes all the episodes of multiple voltage and frequency with muscular activity.
Drowsy: The dogs are lying down with the eyes closed for most of the time. The EEG plots show slow-wave cycles (5-7 Hz) without the appearance of spindles. Large-amplitude synchronous slow waves (4-7 Hz) appear on a background of rapid activity. The EMG tends to be reduced compared with the conscious state.
Light sleep (SL1 or S1): The dogs are lying down in the stretched ventral position or, usually, in an incomplete circle. The relaxation is total. The EEG plots are characterized by K complexes and/or spindles. The amplitude increases.
Deep sleep (SL2 or S2): The dogs are lying down, with relaxed muscles. They remain without reaction to moderate stimulations (by sound). The slow delta waves (<4 Hz) with an amplitude of at least 70 μV constitute at least 20% of a period of 30 seconds.
Paradoxal sleep (PS): The dogs are lying down with the eyes closed and occasionally display rapid contractions of the eyelids and/or myoclonia, in particular of the labial extensor muscles. The EEG plots are of low voltage and varied frequencies. The EOG plots show rapid contractions. The EMG plot is of low amplitude, with the exception of the short-lived clonus. A period is classified as paradoxal sleep only if the preceding period is a period of sleep. The end of a period of paradoxal sleep is determined by the appearance of K complexes or spindles, or by the appearance of EMG activity.
The test compounds are administered intravenously by means of a vehicle having the composition: 50/50 (V/V) PEG-400/water for injectable preparations, as a single bolus of 10 ml per 12 kg of live weight.
The placebo consists of the intravenous administration of the vehicle alone, having the composition: 50/50 (V/V) PEG-400/water for injectable preparations, as a single bolus of 10 ml per 12 kg of live weight.
The distribution of the observation time spent in each of the stages of consciousness and sleep, as well as the latency times for onset of the first stages of each type of sleep, are given in Table I.

[2] = 0.5 μmol/100 g, batch means of 3 chicks, limit values if >2 batches
[3] = 1 μmol/100 g, batch means of 3 chicks, limit values if >2 batches
[4] = 2 μmol/100 g, batch means of 3 chicks, limit values if >2 batches

| SMILES | ST (sleeping time) [1, 2] | ST (sleeping time) [1, 3] | Sedation time (after waking up, Stage 2) [1, 3] | FAT (falling-asleep time) [1, 3] | ST (sleeping time) [1, 4] | Sedation time (after waking up, Stage 2) [1, 4] | FAT (falling-asleep time) [1, 4] | other results |
| --- | --- | --- | --- | --- | --- | --- | --- | --- |
| COc1ccc2[nH]c3c(c2c1)CCN=C3C [10-METHOXYHARMALAN, 10-methoxy harmalan] | – | – | – | – | – | – | – | ST (sleeping time) ([1]; 1.4 μmol/100 g (3 mg/kg)): 0; Sedation time (after waking up, Stage 2) ([1]; 1.4 μmol/100 g (3 mg/kg)): 0 |
| CN1C(=O)CN=C(c2ccccc2)c2cc(Cl)ccc21 [DIAZEPAM, diazepam] | 10-50 | 24-70 | 17-20 | 2-7 | 81-100 | 14-15 | 2-5 | FAT (falling-asleep time) [1, 2]: 3-6 |
| C=C1c2[nH]c3ccc(OC)cc3c(=O)c2CN1C(C)=O [Example 1, 2-Acetyl-7-methoxy-3-methylene-9-oxo-1,3,4,9-tetrahydropyrrolo[3,4-b]quinoline] | – | – | – | – | 30 | 35 | 10.5 | – |
| CCC1=C2c3[nH]c4ccc(OC)cc4c(=O)c3CN2C(=O)CC1 [Example 4] | – | 30 | 47 | 13 | – | – | – | Mean duration of the state of consciousness: Consciousness (Beagle dogs; 1.5 μmol/kg): 115.4 min; Mean duration of the state of consciousness: Drowsiness (Beagle dogs; 1.5 μmol/kg): 15.9 min; Mean duration: P.S. (paradoxal sleep) (Beagle dogs; 1.5 μmol/kg): 2.4 min; Mean duration: Slow-wave sleep S1 + S2 (Beagle dogs; 1.5 μmol/kg): 16.3 min; Mean duration: Total sleep (Beagle dogs; 1.5 μmol/kg): 34.6 min; Mean latency time: Drowsiness (Beagle dogs; 1.5 μmol/kg): 63.8 min; Mean latency time: P.S. (paradoxal sleep) (Beagle dogs; 1.5 μmol/kg): 114.8 min; Mean latency time: Slow-wave sleep S1 (Beagle dogs; 1.5 μmol/kg): 84.8 min; Hypnotic power (in words) (Beagle dogs): marked hypnotic power |
| COc1ccc2[nH]c3c(c(=O)c2c1)CN1C(=O)CCC(c2ccccc2)=C31 [Example 5] | – | – | – | – | – | – | – | Mean duration of the state of consciousness: Consciousness (Beagle dogs; 1 μmol/kg): 108.1 min; Mean duration of the state of consciousness: Drowsiness (Beagle dogs; 1 μmol/kg): 15.8 min; Mean duration: P.S. (paradoxal sleep) (Beagle dogs; 1 μmol/kg): 2.6 min; Mean duration: Slow-wave sleep S1 + S2 (Beagle dogs; 1 μmol/kg): 23.4 min; Mean duration: Total sleep (Beagle dogs; 1 μmol/kg): 41.9 min; Mean latency time: Drowsiness (Beagle dogs; 1 μmol/kg): 51.7 min; Mean latency time: P.S. (paradoxal sleep) (Beagle dogs; 1 μmol/kg): 110.7 min; Mean latency time: Slow-wave sleep S1 (Beagle dogs; 1 μmol/kg): 69.0 min; Hypnotic power (in words) (Beagle dogs): marked hypnotic power; ST (sleeping time) ([1]; 0.87 μmol/100 g (3.12 mg/kg)): 36; Sedation time (after waking up, Stage 2) ([1]; 0.87 μmol/100 g (3.12 mg/kg)): 44; FAT (falling-asleep time) ([1]; 0.87 μmol/100 g (3.12 mg/kg)): 10 |
| COc1ccc2[nH]c3c(c(=O)c2c1)CN(C(C)=O)C3C (stereo not drawn) [Example 6, 2-Acetyl-7-methoxy-3-methyl-9-oxo-1,3,4,9-tetrahydropyrrolo[3,4-b]quinoline] | – | – | – | – | 33 | 27 | 15 | – |
| CCC1CCC(=O)N2Cc3c([nH]c4ccc(OC)cc4c3=O)C12 (stereo not drawn) [Example 9] | – | 36 | 44 | 7 | – | – | – | – |
| COc1ccc2c3c([nH]c2c1)C(C)=NCC3 [HARMALIN, harmaline] | – | – | – | – | – | – | – | ST (sleeping time) ([1]; 1.4 μmol/100 g (3 mg/kg)): 0; Sedation time (after waking up, Stage 2) ([1]; 1.4 μmol/100 g (3 mg/kg)): 0 |
| COc1ccc2[nH]cc(CCNC(C)=O)c2c1 [MELATONIN, melatonin] | 0 | 0 | 16-36 | – | 0 | 47-105 | – | Hypnotic activity (in words) ([1]; administration during the daylight phase between 2.00 pm and 3.00 pm): no hypnotic activity |
| CCCC(C)C1(CC)C(=O)NC(=O)NC1=O (stereo not drawn) [PENTOBARBITAL, pentobarbital sodium] | 0 | 36 | – | 13 | – | – | – | – |
